Source: the NIST ThermoML archive (doi:10.1016/j.jct.2014.10.001)
Where “and” joins values, the source holds several entries; their conditions need not be identical. Equal entries are not always repeated.

Assay: xn = mol fraction of the nth substance listed
Conditions: Gas, Buoyancy - hydrostatic balance with magnetic suspension - one sinker

FCC(F)(F)F [1,1,1,2-tetrafluoroethane] + CCC
Conditions	mass density
258.14 K, 113.78 kPa, x1 = 0.5401	4.1262 kg/m3
258.14 K, 154.11 kPa, x1 = 0.5401	5.651 kg/m3
258.15 K, 190.72 kPa, x1 = 0.5401	7.0674 kg/m3
258.15 K, 242.95 kPa, x1 = 0.5401	9.1445 kg/m3
258.16 K, 154.01 kPa, x1 = 0.7989	6.8087 kg/m3
258.16 K, 168.96 kPa, x1 = 0.2391	4.7661 kg/m3
258.17 K, 103.24 kPa, x1 = 0.2391	2.8628 kg/m3
258.17 K, 106.9 kPa, x1 = 0.7989	4.6538 kg/m3
258.18 K, 197.88 kPa, x1 = 0.7989	8.8817 kg/m3
258.19 K, 252.34 kPa, x1 = 0.2391	7.2822 kg/m3
263.13 K, 101.57 kPa, x1 = 0.5401	3.5945 kg/m3
263.13 K, 101.58 kPa, x1 = 0.5401	3.5946 kg/m3
263.14 K, 134.16 kPa, x1 = 0.6201	5.0876 kg/m3
263.14 K, 166.53 kPa, x1 = 0.5401	5.9917 kg/m3
263.14 K, 183.78 kPa, x1 = 0.7989	8.0203 kg/m3
263.14 K, 220.07 kPa, x1 = 0.5401	8.0347 kg/m3
263.14 K, 225.37 kPa, x1 = 0.7989	9.9705 kg/m3
263.14 K, 281.67 kPa, x1 = 0.5401	10.4652 kg/m3
263.15 K, 99.9 kPa, x1 = 0.7989	4.2498 kg/m3
263.15 K, 102.04 kPa, x1 = 0.2391	2.7715 kg/m3
263.15 K, 145.63 kPa, x1 = 0.7989	6.2807 kg/m3
263.15 K, 194.24 kPa, x1 = 0.6201	7.4918 kg/m3
263.15 K, 259.7 kPa, x1 = 0.6201	10.2107 kg/m3
263.16 K, 203.74 kPa, x1 = 0.2391	5.6732 kg/m3
263.17 K, 305.05 kPa, x1 = 0.2391	8.7279 kg/m3
268.12 K, 231.64 kPa, x1 = 0.7989	10.0266 kg/m3
268.13 K, 104.95 kPa, x1 = 0.7989	4.3792 kg/m3
268.13 K, 150.69 kPa, x1 = 0.7989	6.3684 kg/m3
268.13 K, 213.45 kPa, x1 = 0.6201	8.092 kg/m3
268.14 K, 104.92 kPa, x1 = 0.5401	3.6381 kg/m3
268.14 K, 125.37 kPa, x1 = 0.6201	4.6466 kg/m3
268.14 K, 190.18 kPa, x1 = 0.7989	8.1303 kg/m3
268.14 K, 285.39 kPa, x1 = 0.7989	12.5661 kg/m3
268.14 K, 300.29 kPa, x1 = 0.6201	11.6624 kg/m3
268.15 K, 183.8 kPa, x1 = 0.5401	6.4973 kg/m3
268.15 K, 268.92 kPa, x1 = 0.5401	9.7174 kg/m3
268.16 K, 198.02 kPa, x1 = 0.2391	5.3921 kg/m3
268.16 K, 341.03 kPa, x1 = 0.5401	12.5709 kg/m3
268.17 K, 119.34 kPa, x1 = 0.2391	3.1919 kg/m3
268.17 K, 286.65 kPa, x1 = 0.2391	7.9728 kg/m3
268.17 K, 365.93 kPa, x1 = 0.2391	10.3898 kg/m3
273.1 K, 170.36 kPa, x1 = 0.5401	5.8806 kg/m3
273.1 K, 283.04 kPa, x1 = 0.6201	10.6873 kg/m3
273.1 K, 358.16 kPa, x1 = 0.6201	13.8005 kg/m3
273.1 K, 411.8 kPa, x1 = 0.5401	15.1107 kg/m3
273.11 K, 105.09 kPa, x1 = 0.5401	3.5743 kg/m3
273.11 K, 121.2 kPa, x1 = 0.6201	4.3969 kg/m3
273.11 K, 251.59 kPa, x1 = 0.5401	8.853 kg/m3
273.11 K, 262.93 kPa, x1 = 0.7989	11.2212 kg/m3
273.11 K, 323.14 kPa, x1 = 0.5401	11.5758 kg/m3
273.12 K, 100.04 kPa, x1 = 0.7989	4.0831 kg/m3
273.12 K, 122.4 kPa, x1 = 0.2391	3.2081 kg/m3
273.12 K, 206.06 kPa, x1 = 0.6201	7.6287 kg/m3
273.12 K, 451.8 kPa, x1 = 0.2391	12.8024 kg/m3
273.13 K, 144.28 kPa, x1 = 0.7989	5.9572 kg/m3
273.13 K, 204.71 kPa, x1 = 0.2391	5.4646 kg/m3
273.13 K, 216.26 kPa, x1 = 0.7989	9.1063 kg/m3
273.13 K, 288.63 kPa, x1 = 0.2391	7.853 kg/m3
273.13 K, 319.28 kPa, x1 = 0.7989	13.8595 kg/m3
273.13 K, 364.79 kPa, x1 = 0.2391	10.1086 kg/m3
278.12 K, 123.52 kPa, x1 = 0.6201	4.396 kg/m3
278.13 K, 236.83 kPa, x1 = 0.6201	8.6438 kg/m3
278.14 K, 337.13 kPa, x1 = 0.6201	12.6083 kg/m3
278.14 K, 433.01 kPa, x1 = 0.6201	16.603 kg/m3
278.15 K, 103.41 kPa, x1 = 0.7989	4.1428 kg/m3
278.15 K, 194.41 kPa, x1 = 0.5401	6.606 kg/m3
278.15 K, 286.8 kPa, x1 = 0.7989	12.0403 kg/m3
278.15 K, 289.3 kPa, x1 = 0.5401	10.0435 kg/m3
278.15 K, 381.08 kPa, x1 = 0.7989	16.4363 kg/m3 and 16.4338 kg/m3
278.15 K, 419.02 kPa, x1 = 0.5401	15.0163 kg/m3
278.15 K, 504.76 kPa, x1 = 0.5401	18.5053 kg/m3
278.16 K, 115.44 kPa, x1 = 0.5401	3.8575 kg/m3
278.16 K, 152.51 kPa, x1 = 0.7989	6.1813 kg/m3
